US5451601A, “Perhydroisoindole derivatives and pharmaceutical compositions containing them” (Rhone-Poulenc Rorer S.A., priority 1991, dated 1995)

Experiments:
Format in all cases: in vivo
[1] = analgesic activity, technique of Siegmund E. et al.; conditions: po
Text: Exp. Biol. Med., 95, 729 (1957).

[2] = test system: septide (agonist of substance P); assay: inhibition of the increase in capillary permeability brought about by septide, technique of A. Saria et al. adapted to mice; conditions: Mus musculus, sc, septide-induced increase in capillary permeability
Text: The study of a number of isoindole derivatives of general formula (I) according to the technique of A. Saria et al., Arch.

substance P = assay: antagonism of the hypotension induced by substance P, technique of C. A. Maggi et al.; conditions: rats; product 1 mg/kg i.v./min for 5 min; hypotension induced by i.v. injection of substance P
Text: Injection of substance P into animals produces hypotension. The products studied in the technique of C. A. Maggi et al., J. Auton.

| Compound | ED50 [1] [mg/kg] | ED50 [2] [mg/kg] | % inhibition of hypotension (substance P) [%] |
| --- | --- | --- | --- |
| COc1ccccc1[C@H](C)C(=O)N1C[C@@H]2[C@H](F)CCC(c3ccccc3)(c3ccccc3)[C@@H]2C1 [Example 7, (3aR,7R,7aR)-4,4-diphenyl-7-fluoro-2-[(S)-2-(2-methoxyphenyl)propionyl]perhydroisoindole] | 1.5 | 0.32 | – |
| CN(C)CCCOc1ccccc1CC(=O)N1C[C@@H]2[C@H](F)CCC(c3ccccc3)(c3ccccc3)[C@@H]2C1.Cl [Example 1, (3aR,7R,7aR)-2-{[2-(3-dimethylaminopropoxy)phenyl]acetyl}-4,4-diphenyl-7-fluoroperhydroisoindole hydrochloride] | 3 | 0.7 | 73 |
| O=C(Cc1ccccc1OCCCN1CCCC1)N1C[C@@H]2[C@H](F)CCC(c3ccccc3)(c3ccccc3)[C@@H]2C1 [Example 2] | 2 | 0.3 | 68 |
